# From PubChem BioAssay AID1189 (EPA DSSTox, 2008)
# Active and inactive are the calls of the source.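 How the source made its calls: active means a tumor-causing dose value with its tumor site reported for any sex and species group of a rodent or other animal cancer study; inconclusive means only studies judged inadequate by the national testing program; inactive means tested in at least one study, none positive.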
# Test: DSSTox (CPDBAS) Carcinogenic Potency Database Summary SingleCellCall Results
# Details: animal chronic carcinogenicity bioassays, CPDB summary call
# Description: The Carcinogenic Potency Database (CPDB) is a unique and widely used international resource of the results of over 6500 chronic, long-term animal cancer tests on over 1500 chemical substances. The CPDB provides easy access to the bioassay literature, with qualitative and quantitative analyses of both positive and negative experiments that have been published over the past 50 years in the general literature and by the National Cancer Institute/National Toxicology Program. The CPDB standardizes the diverse literature of cancer bioassays that vary widely in protocol, histopathological examination and nomenclature, and in the published author's choices of what information to provide in their papers. Results are reported in the CPDB for tests in rats, mice, hamsters, dogs, and nonhuman primates, and are based on the most positive result among all experiments for each sex-species. The DSSTox CPDBAS (all species) file incorporates data from the CPDB Summary Tables for the full list of over 1500 chemical substances tested in at least one species. A summary SingleCellCall, based on experimental bioassay results of one or more species, is provided for the entire DSSTox CPDBAS file (see Source URL).
# An assignment of categorical carcinogenic activity based on minimal evidence for or against activity. […] Associated TD50 values and tumor site details for the relevant species/sex experiment supporting this overall CPDBAS SingleSiteCall are provided in the full CPDBAS DSSTox file (see Comment) and the corresponding CPDBAS Species Bioassay in PubChem.
row,SMILES,outcome
1,CC(=O)NCc1nc(-c2ccc([N+](=O)[O-])o2)no1,active
2,CC(=O)Oc1c(C)c(C)c2c(c1C)CCC(C)(CCCC(C)CCCC(C)CCCC(C)C)O2 (stereo not drawn),inactive
3,O=NN1CC(=O)NC1=O,active
4,CCN(CC)c1ccc(N=Nc2cc[n+]([O-])cc2)cc1,active
5,CN(C)C(=O)COC(=O)Cc1ccc(OC(=O)c2ccc(N=C(N)N)cc2)cc1,inactive
6,Nc1nc(-c2ccc([N+](=O)[O-])cc2)cs1,active
7,F[B-](F)(F)F,inactive
8,CCCCCCCCCCCC[N+](C)(C)[O-],inactive
9,O.[Cd+2].[Cl-].[Cl-],inactive
10,CCN(CC)c1cc2oc3cc(=[N+](CC)CC)c(C)cc-3c(-c3ccc(S(=O)(=O)O)cc3S(=O)(=O)[O-])c2cc1C,inactive
11,CCCCN(CCCC)N=O,active
12,O=P(O)(OCC(Br)CBr)OCC(Br)CBr (stereo not drawn),active; inactive
13,CC(=O)Nc1nc(-c2ccc([N+](=O)[O-])o2)cs1,active
14,CCCN(CCC)c1ccc(N=Nc2cc[n+]([O-])cc2)cc1,inactive
15,Nc1ccc(N(CCO)CCO)cc1,inactive
16,ClC(Cl)C(Cl)(Cl)Cl,active
17,CCOC(=O)N(C)N=O,active
18,COc1ccc(N)cc1N,active
19,NC(N)=O,inactive
20,CCOC(=O)CC(SP(=S)(OC)OC)C(=O)OCC (stereo not drawn),inactive
21,CC(=O)Nc1ccc(S(=O)(=O)O)c2cc(S(=O)(=O)O)c(N=Nc3ccc(N=Nc4ccc(S(=O)(=O)O)cc4)c4ccc(S(=O)(=O)O)cc34)c(O)c12,inactive; active
22,NCC1(CC(=O)O)CCCCC1,active
23,CCCCCN(N=O)C(N)=O,active
24,CC1=C[C@H]2O[C@@H]3[C@H](O)[C@@H](O)[C@@](C)(C34CO4)[C@@]2(CO)[C@H](O)C1=O (stereo partly drawn),inactive; active

row,SMILES,outcome
1,Cc1cc(C(C)(C)C)c(O)c(C(C)(C)C)c1,active
2,Cc1cn([C@H]2C[C@H](N=[N+]=[N-])[C@@H](CO)O2)c(=O)[nH]c1=O,active
3,Nc1ccc2c(c1)oc1ccccc12,active
4,CC(C)(C)c1cc(CO)cc(C(C)(C)C)c1O,inactive
5,FC(F)(Cl)C(F)(Cl)Cl,inactive; active
6,CC/C(=C(/CC)c1ccc(O)cc1)c1ccc(O)cc1,active
7,CCN=[N+]([O-])CC,active
8,ClC(Cl)Br,active
9,CCCN(CCC)S(=O)(=O)c1ccc(C(=O)O)cc1,active
10,NC(=O)CCCCC(N)=O,inactive; active
11,O=C(O)C(Cl)Cl,active; inactive
12,CC(O)C(=O)O (stereo not drawn),inactive
13,Brc1cc(-c2ccc(Br)c(Br)c2Br)cc(Br)c1Br,inactive; active
14,ClCC(Br)CBr (stereo not drawn),active
15,Cc1cc(C)c(S(=O)(=O)O)cc1N=Nc1cc(S(=O)(=O)O)c2ccccc2c1O,active
16,CN(N=O)c1ccncc1,inactive; active
17,CC(=O)NNc1ccc(CO)cc1,active
18,Nc1ccc(NC(=O)c2ccc(N)cc2)cc1,inactive; active
19,Oc1cccc2cccnc12,inactive
20,O=[O+][O-],active
21,Nc1ccc2ccccc2c1,active
22,N[C@@H](CS)C(=O)O,inactive
23,O=S(=O)(O)c1cc(S(=O)(=O)O)c2c(N=Nc3ccc(S(=O)(=O)O)c4ccccc34)c(O)ccc2c1,active; inactive
24,Clc1ccc(C(c2ccc(Cl)cc2)C(Cl)(Cl)Cl)cc1,active

row,SMILES,outcome
1,O=CNc1nc(-c2ccc([N+](=O)[O-])o2)cs1,active
2,Clc1nc(Cl)nc(Nc2ccccc2Cl)n1,inactive
3,CC(=O)N(C(C)=O)c1cccc2c1Cc1ccccc1-2,active
4,CCCCCCCCCCCCCCN(C)N=O,active
5,C1CCC(C(CC2CCCCN2)C2CCCCC2)CC1 (stereo not drawn),inactive
6,Brc1cc(Br)c2cccnc2c1,inactive; active
7,ClCCCl,active
8,O.O.O.O.O.O.O.O.O=S(=O)([O-])[O-].O=S(=O)([O-])[O-].O=S(=O)([O-])[O-].[Cd+2].[Cd+2].[Cd+2],inactive
9,CCCCNN,active
10,O=c1cc[nH]c(=O)[nH]1,active; inactive
11,CCBr,active
12,O=S(=O)([O-])[O-].O=S(=O)([O-])[O-].[Zr+4],inactive
13,CCN(CC)C(=S)S,inactive; active
14,O=C(Nc1ccc([N+](=O)[O-])cc1Cl)c1cc(Cl)ccc1O,inactive
15,CC1=CC(=C(c2ccc(N)cc2)c2ccc(N)cc2)C=CC1=N,inactive
16,OC(Cn1cncn1)(Cn1cncn1)c1ccc(F)cc1F,active; inactive
17,NC(=O)Cc1cccc2ccccc12,inactive; active
18,Cc1cccc(C)c1NC1=NCCCS1,inactive
19,O=[As](O)(O)O,inactive
20,CCCCCC(/C=C/C=C\CCCCCCCC(=O)OC)OO (stereo not drawn),inactive
21,FC(F)OC(F)(F)C(F)Cl (stereo not drawn),inactive
22,ClC(Cl)(Cl)C(Cl)(Cl)Cl,active
23,CC(=O)O[C@H]1CC[C@@]2(C)C(=CC[C@@H]3[C@@H]2CC[C@]2(C)C(=O)CC[C@@H]32)C1,active
24,C=Cc1cccc[n+]1[O-],inactive

row,SMILES,outcome
1,S=c1[nH]c2ccccc2s1,active
2,CC(F)(Cl)Cl,active
3,ClCC1CO1 (stereo not drawn),active
4,Cc1cc(N=Nc2ccccc2C)ccc1N,active
5,Clc1ccc(Sc2cc(Cl)c(Cl)cc2Cl)cc1,inactive
6,O=NN1CCC(=O)NC1=O,active
7,Brc1cc(Br)c(-c2cc(Br)c(Br)cc2Br)cc1Br,active
8,CC(C)Oc1ccc(Nc2ccccc2)cc1,inactive
9,ClCCl,active
10,Oc1c(Cl)cc(Cl)c(Cl)c1Cc1c(O)c(Cl)cc(Cl)c1Cl,inactive
11,[S-]c1nc2ccccc2s1.[S-]c1nc2ccccc2s1.[Zn+2],inactive; active
12,O=C(O)COc1ccc(Cl)cc1Cl,inactive
13,OC[C@@H](O)[C@H]1O[C@@H]2O[C@H](C(Cl)(Cl)Cl)O[C@@H]2[C@H]1O,inactive
14,NC(=O)N(CCO)N=O,active; inactive
15,CC(C)(CCCOc1ccc(OCCCC(C)(C)C(=O)O)c(-c2ccccc2)c1)C(=O)O,active
16,c1ccoc1,active; inactive
17,c1ccc(N=Nc2ccccc2)cc1,active
18,CC[C@H](C)[C@H]1O[C@]2(CC[C@@H]1C)C[C@@H]1C[C@@H](C/C=C(\C)[C@@H](O[C@H]3C[C@H](OC)[C@@H](O[C@H]4C[C@H](OC)[C@@H](O)[C@H](C)O4)[C@H](C)O3)[C@@H](C)/C=C/C=C3\CO[C@@H]4[C@H](O)C(C)=C[C@@H](C(=O)O1)[C@]34O)O2,inactive
19,Cc1cccc(Nc2cc(Cl)nc(SCC(=O)O)n2)c1C,active; inactive
20,Cc1cc(C)nc(NS(=O)(=O)c2ccc(N)cc2)n1,active
21,CC1CN1P(=O)(N1CC1C)N1CC1C (stereo not drawn),active
